The test system of this assay is NanoLuc-PEST expressing L. mexicana axenic amastigotes. Description: microbe, parasite or virus in culture. It counts as cell-based. The settings on record: for Relative Bioluminescence (%): 72 hours, relative to DMSO only control, n = 4; for EC50: hit compounds from the axenic amastigote screen, S3 Table, read-out: EC50, Axenic Amastigotes.

Experimental findings from paper PMC6057649, “Development of NanoLuc-PEST expressing Leishmania mexicana as a new drug discovery tool for axenic- and intramacrophage-based assays” (PLoS Neglected Tropical Diseases, 2018) are described below.

As to `O=C(NCCc1ccccc1)c1cc(-c2cccnc2)cnc1NCC1CC1` [MMV026490], the “Relative Bioluminescence (%)” value is recorded as 92.31% (2 µM compound) and 60.31% (10 µM compound).

In the case of `CC(C)(C)CN1C(=O)C(c2ccccc2)(c2ccccc2)N=C1N` [MMV026550], the “Relative Bioluminescence (%)” value came to 91.50% (2 µM compound) and 87.66% (10 µM compound).

For the compound `OCCc1ccc(Nc2nccc(-c3nnc4ccccn34)n2)cc1` [MMV028694], the “Relative Bioluminescence (%)” value is, setting by setting: (2 µM compound) 24.99%; (10 µM compound) 3.77%.

Consider `CC(C)(CN)c1nc(-c2ccc(Cl)c(O)c2)c(-c2ccnc(N)n2)[nH]1` [MMV030734], for which the “Relative Bioluminescence (%)” value by setting is: (2 µM compound) 80.21%; (10 µM compound) 87.08%.

As to `CNC(=O)C1Cc2c([nH]c3cc(Cl)ccc23)C2(CCN(CCc3ccccc3)CC2)N1` (stereo not drawn) [MMV031011], the “Relative Bioluminescence (%)” value (2 µM compound) was determined as 110.57% and the “Relative Bioluminescence (%)” value (10 µM compound) came to 84.55%.

Take `FC(F)(F)c1cccc(-c2nc3c(NCc4ccncc4)nccc3[nH]2)c1` [MMV032967]: the “Relative Bioluminescence (%)” value was found to be 79.58% (2 µM compound) and 75.35% (10 µM compound).

Consider `O=C1COCc2ccc(Br)cc2N1Cc1ccc(C(F)(F)F)cc1` [MMV032995], for which the “Relative Bioluminescence (%)” value (2 µM compound) was found to be 97.31% and the “Relative Bioluminescence (%)” value (10 µM compound) is recorded as 90.22%.

On to `c1ccc(Oc2ccc(-c3cc(N4CCOCC4)n[nH]3)cc2)cc1` [MMV045105], for which the “Relative Bioluminescence (%)” value is, setting by setting: (2 µM compound) 73.02%; (10 µM compound) 44.11%.

In the case of `COc1cc(C(F)(F)F)nc2ccc(C)c(N)c12` [MMV047015], the “Relative Bioluminescence (%)” value is listed as 86.47% (2 µM compound) and 82.90% (10 µM compound).

As to `N#Cc1ccc(-c2ccc(OCC(N)=O)cc2)cc1` [MMV053220], the “Relative Bioluminescence (%)” value reads like this: (2 µM compound) 105.30%; (10 µM compound) 82.56%.

`CC(=O)N1CCc2cc3nc(C)cc(C)c3cc21` [MMV054312]: the “Relative Bioluminescence (%)” value is, setting by setting: (2 µM compound) 120.77%; (10 µM compound) 116.16%.

On to `Cc1cc(C)nc(-n2nc(C)cc2Nc2ccccc2)n1` [MMV062221], for which the “Relative Bioluminescence (%)” value reads like this: (2 µM compound) 64.16%; (10 µM compound) 7.64%.

Turning to `Cc1nn(Cc2ccccc2)c(Cl)c1C(=O)NC1CCCCCC1` [MMV063404], the “Relative Bioluminescence (%)” value worked out at 86.21% (2 µM compound) and 79.51% (10 µM compound).

Consider `FC(F)(F)c1nnc2ccc(Cl)nn12` [MMV069458], for which the “Relative Bioluminescence (%)” value runs as follows: (2 µM compound) 115.05%; (10 µM compound) 112.41%.

Consider `O=C1N(Cc2cc3ccccc3s2)CC2CN(Cc3ccccc3)CCN12` (stereo not drawn) [MMV084603], for which the “Relative Bioluminescence (%)” value (2 µM compound) was determined as 70.21% and the “Relative Bioluminescence (%)” value (10 µM compound) was 61.10%.

Regarding `O=C(Nc1cnc2ccccc2c1)c1cccc(-n2cnnn2)c1` [MMV084864], the “Relative Bioluminescence (%)” value reads like this: (2 µM compound) 74.64%; (10 µM compound) 55.81%.

Regarding `COc1cncc(-c2cncc(N3CCN(c4ccncc4)CC3)n2)c1` [MMV085071], the “Relative Bioluminescence (%)” value (2 µM compound) is 93.07% and the “Relative Bioluminescence (%)” value (10 µM compound) is given as 82.11%.

Consider `O=C(C(Cc1c[nH]c2ccccc12)NS(=O)(=O)c1ccc(Cl)cc1)N1CCCCC1` (stereo not drawn) [MMV085210], for which the “Relative Bioluminescence (%)” value (2 µM compound) is on record as 65.83% and the “Relative Bioluminescence (%)” value (10 µM compound) is 73.33%.

As for `CCCNC(=O)N1CCC2(CC1)CC(=O)c1cc(C)ccc1O2` [MMV085230], the “Relative Bioluminescence (%)” value reads like this: (2 µM compound) 100.02%; (10 µM compound) 105.91%.

Consider `N#Cc1ccc(-c2cnc(N)c(-c3ccc(C(N)=O)cc3)n2)cc1` [MMV085499], for which the “Relative Bioluminescence (%)” value is, setting by setting: (2 µM compound) 98.08%; (10 µM compound) 54.27%.

`CCOC(=O)NC(=O)c1ccsc1NC(=O)c1nc2ccccc2s1` [MMV090930]: the “Relative Bioluminescence (%)” value is recorded as 11.16% (2 µM compound) and -0.77% (10 µM compound).

As usually defined, the EC50 is the midpoint of the concentration-response curve. In the case of `O=C(Nc1nnc(-c2ccc(Cl)cc2)o1)c1cccc(C(F)(F)F)c1` [MMV102872], the EC50 stood at 810 nM. For the same compound, under “2 µM compound”, the “Relative Bioluminescence (%)” value is 0.33%. Besides, under “10 µM compound”, the “Relative Bioluminescence (%)” value is on record as -0.65%.

For the compound `CCC(C)NC(=O)c1ccc(NC(=O)C2(c3ccccc3)CCCC2)cc1` (stereo not drawn) [MMV146306], the “Relative Bioluminescence (%)” value is 97.77% (2 µM compound) and 40.43% (10 µM compound).

Regarding `CCOC(=O)c1c(NC(=O)c2c(F)c(F)c(F)c(F)c2F)sc(C(N)=O)c1C` [MMV153413], the concentration giving a half-maximal response (EC50) was 520 nM. The “Relative Bioluminescence (%)” value (2 µM compound) came out at 4.50%. Also, the “Relative Bioluminescence (%)” value (10 µM compound) came to 0.97%.

On to `Cc1cc(Cl)ccc1NC(=O)CCc1ccc(S(=O)(=O)NCC(C)C)cc1` [MMV161996], for which the “Relative Bioluminescence (%)” value reads like this: (2 µM compound) 75.91%; (10 µM compound) 98.90%.

On to `CNC(=O)C1Cc2ccccc2N1C(=O)Cc1ccc(F)cc1` (stereo not drawn) [MMV188296], for which the “Relative Bioluminescence (%)” value is 81.46% (2 µM compound) and 106.72% (10 µM compound).

On to `COc1ccc(C2(C(=O)Nc3ccc(Br)cc3)CCCC2)cc1` [MMV200748], for which the “Relative Bioluminescence (%)” value is, setting by setting: (2 µM compound) 64.99%; (10 µM compound) 61.91%.

For `COc1ccc(OC(C)C(=O)Nc2ccc(Cl)cc2C)cc1` (stereo not drawn) [MMV202458], the “Relative Bioluminescence (%)” value by setting is: (2 µM compound) 83.71%; (10 µM compound) 79.97%.

On to `CCC(=O)Nc1ccccc1C(=O)Nc1ccccn1` [MMV202553], for which the “Relative Bioluminescence (%)” value runs as follows: (2 µM compound) 76.92%; (10 µM compound) 77.09%.

As for `COc1cccc(NC(=O)c2c(NC(=O)c3cccnc3)sc3c2CCC3)c1` [MMV228911], the “Relative Bioluminescence (%)” value came to 73.96% (2 µM compound) and 11.53% (10 µM compound).

In the case of `COc1cccc(-n2nnnc2S(C)(=O)=O)c1` [MMV272144], the 50% effective concentration (EC50) is 640 nM. Besides, the “Relative Bioluminescence (%)” value (2 µM compound) came out at 2.64%. For the same compound, the “Relative Bioluminescence (%)” value (10 µM compound) is reported as 0.19%.

Turning to `COc1cccc(-c2cc3c(Nc4cccnc4)nccc3[nH]2)c1` [MMV392832], the “Relative Bioluminescence (%)” value reads like this: (2 µM compound) 70.60%; (10 µM compound) 51.50%.

Regarding `CN1CCN(c2nccc3[nH]c(-c4cccc(F)c4)cc23)CC1` [MMV393144], the “Relative Bioluminescence (%)” value amounted to 92.24% (2 µM compound) and 81.97% (10 µM compound).

As to `Cc1cc(=O)[nH]c(-n2nc(C)cc2C)n1` [MMV393995], the “Relative Bioluminescence (%)” value (2 µM compound) worked out at 27.43% and the “Relative Bioluminescence (%)” value (10 µM compound) came out at 3.00%.

In the case of `CCc1nc2ccc(C(=O)NCc3ccc4c(c3)OCO4)cn2c1N(C)Cc1cccs1` [MMV407539], the “Relative Bioluminescence (%)” value worked out at 104.77% (2 µM compound) and 70.84% (10 µM compound).

In the case of `CCOc1ccccc1NC(C)C(=O)Nc1cc(C(F)(F)F)ccc1N1CCOCC1` (stereo not drawn) [MMV407834], the “Relative Bioluminescence (%)” value stood at 70.36% (2 µM compound) and 63.07% (10 µM compound).

For the compound `COC(=O)c1c(NC(=O)c2c(F)c(F)c(F)c(F)c2F)sc2c1CCCCC2` [MMV461553], the “Relative Bioluminescence (%)” value was 48.03% (2 µM compound) and -0.44% (10 µM compound).

For `CC(C)(C)c1cnc(NC(=O)c2ccccc2O)s1` [MMV495543], the “Relative Bioluminescence (%)” value is, setting by setting: (2 µM compound) 70.90%; (10 µM compound) 27.02%.

On to `CS(=O)(=O)Cc1nc2ccccc2oc1=O` [MMV553002], for which the “Relative Bioluminescence (%)” value is, setting by setting: (2 µM compound) 72.57%; (10 µM compound) 58.91%.
